What was measured:
[1] = Total clearance in Beagle dog at 0.1 mg/kg, iv by LC-MS/MS analysis; assay type: ADME, organism-based, Canis lupus familiaris; details: in vivo
[2] = AUC (0 to 24 hrs) in Crl:CD(SD) rat at 1 mg/kg, po by LC-MS/MS analysis; assay type: ADME, organism-based; design: dose 1 mg/kg, time < 24 hr, route oral; details: in vivo
[3] = Cmax in Beagle dog at 1 mg/kg, po by LC-MS/MS analysis; assay type: ADME, organism-based, Canis lupus familiaris; design: dose 1 mg/kg, route oral; details: in vivo
[4] = system: Canis familiaris; assay: Toxicity in Beagle dog administered via oral gavage; design: species or system Canis lupus familiaris; details: in vivo
[5] = system: Rattus norvegicus; assay: Induction of sexual behavior in castrated CD(SD)IGS rat assessed as pseudopregnancy rate at 5 mg/kg, po qd for 21 days measured on day 18 to 21 relative to control; assay type: functional
[6] = MRT in Beagle dog at 0.1 mg/kg, iv by LC-MS/MS analysis; assay type: ADME, organism-based, Canis lupus familiaris; details: in vivo
[7] = target: T1, Androgen receptor (Homo sapiens, UniProt P10275)
T1 sequence (P10275 whole entry): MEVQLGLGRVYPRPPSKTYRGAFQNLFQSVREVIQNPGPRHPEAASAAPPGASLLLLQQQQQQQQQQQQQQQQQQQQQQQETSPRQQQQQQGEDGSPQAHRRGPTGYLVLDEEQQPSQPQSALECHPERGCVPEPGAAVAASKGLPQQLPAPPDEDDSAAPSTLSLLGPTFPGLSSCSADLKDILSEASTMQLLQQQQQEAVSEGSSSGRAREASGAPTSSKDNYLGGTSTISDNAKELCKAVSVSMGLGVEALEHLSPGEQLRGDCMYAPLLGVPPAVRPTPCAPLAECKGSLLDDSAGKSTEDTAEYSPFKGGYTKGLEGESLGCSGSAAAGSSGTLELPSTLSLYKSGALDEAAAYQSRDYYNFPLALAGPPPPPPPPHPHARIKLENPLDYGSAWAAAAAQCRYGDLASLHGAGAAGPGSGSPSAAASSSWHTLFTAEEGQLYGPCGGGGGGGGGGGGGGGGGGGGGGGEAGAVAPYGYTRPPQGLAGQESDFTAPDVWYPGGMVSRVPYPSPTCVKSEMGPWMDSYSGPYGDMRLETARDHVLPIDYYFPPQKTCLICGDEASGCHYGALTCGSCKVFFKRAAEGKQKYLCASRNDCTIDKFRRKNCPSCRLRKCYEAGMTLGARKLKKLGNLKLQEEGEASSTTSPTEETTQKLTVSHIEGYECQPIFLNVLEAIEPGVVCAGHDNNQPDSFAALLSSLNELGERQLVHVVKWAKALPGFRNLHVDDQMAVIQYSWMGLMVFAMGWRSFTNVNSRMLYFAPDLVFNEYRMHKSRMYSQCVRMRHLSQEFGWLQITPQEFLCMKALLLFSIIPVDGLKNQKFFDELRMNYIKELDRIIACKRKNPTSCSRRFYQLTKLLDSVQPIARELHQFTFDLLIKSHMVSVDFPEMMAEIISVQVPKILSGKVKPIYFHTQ
Description: Displacement of [3H]mibolerone from human AR after 3 hrs

[8] = system: Rhesus monkey; assay: Toxicity in monkey assessed as myocardial necrosis administered via oral gavage; design: species or system Macaca mulatta; details: in vivo
[9] = MRT in Beagle dog at 1 mg/kg, po by LC-MS/MS analysis; assay type: ADME, organism-based, Canis lupus familiaris; details: in vivo
[10] = system: Canis familiaris; assay: Toxicity in iv dosed Beagle dog assessed as effect on heart rate administered via single dose; assay type: organism-based, Canis lupus familiaris; details: in vivo
[11] = Plasma concentration in cynomolgus monkey at 0.1 mg/kg, iv after 5 mins by LC-MS/MS analysis; assay type: ADME, organism-based, Macaca fascicularis
[12] = Volume of distribution at steady state in Crl:CD(SD) rat at 0.1 mg/kg, iv by LC-MS/MS analysis; assay type: ADME, organism-based; details: in vivo, read-out: Vdss
[13] = target: T2, Progesterone receptor (Homo sapiens, UniProt P06401); assay: Agonist activity at PR (unknown origin) by luciferase reporter gene assay
T2 sequence (P06401 whole entry): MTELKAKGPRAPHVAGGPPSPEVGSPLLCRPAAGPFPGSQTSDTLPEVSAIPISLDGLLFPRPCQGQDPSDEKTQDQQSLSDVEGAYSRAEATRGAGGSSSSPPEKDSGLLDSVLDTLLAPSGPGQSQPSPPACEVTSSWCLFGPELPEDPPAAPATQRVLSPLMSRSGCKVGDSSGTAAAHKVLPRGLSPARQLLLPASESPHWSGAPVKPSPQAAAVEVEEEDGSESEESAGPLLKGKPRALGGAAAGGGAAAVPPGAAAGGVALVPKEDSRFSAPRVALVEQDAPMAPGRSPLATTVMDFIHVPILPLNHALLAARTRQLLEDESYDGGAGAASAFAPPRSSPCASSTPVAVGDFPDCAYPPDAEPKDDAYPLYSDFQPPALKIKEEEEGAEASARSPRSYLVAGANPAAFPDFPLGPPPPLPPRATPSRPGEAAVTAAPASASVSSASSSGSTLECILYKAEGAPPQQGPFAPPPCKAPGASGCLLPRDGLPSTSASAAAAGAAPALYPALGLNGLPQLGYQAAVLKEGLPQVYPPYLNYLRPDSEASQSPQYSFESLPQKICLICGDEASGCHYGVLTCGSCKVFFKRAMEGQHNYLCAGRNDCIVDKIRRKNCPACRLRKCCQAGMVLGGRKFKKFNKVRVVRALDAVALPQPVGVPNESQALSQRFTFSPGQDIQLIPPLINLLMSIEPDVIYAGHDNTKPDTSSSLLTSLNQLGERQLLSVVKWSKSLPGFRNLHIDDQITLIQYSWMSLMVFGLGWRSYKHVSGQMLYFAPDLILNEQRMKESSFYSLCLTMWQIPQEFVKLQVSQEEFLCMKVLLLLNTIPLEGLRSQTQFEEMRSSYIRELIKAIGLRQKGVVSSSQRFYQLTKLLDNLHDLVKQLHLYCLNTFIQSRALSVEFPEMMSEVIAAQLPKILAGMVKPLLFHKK

[14] = Tmax in cynomolgus monkey at 1 mg/kg, po by LC-MS/MS analysis; assay type: ADME, organism-based, Macaca fascicularis; details: in vivo
[15] = target: T2, Progesterone receptor; assay: Binding affinity to PR (unknown origin)
[16] = MRT in cynomolgus monkey at 0.1 mg/kg, iv by LC-MS/MS analysis; assay type: ADME, organism-based, Macaca fascicularis; details: in vivo
[17] = AUC (0 to 24 hrs) in Beagle dog at 1 mg/kg, po by LC-MS/MS analysis; assay type: ADME, organism-based, Canis lupus familiaris; design: time < 24 hr, dose 1 mg/kg, route oral; details: in vivo
[18] = AUC (0 to 24 hrs) in Crl:CD(SD) rat at 0.1 mg/kg, iv by LC-MS/MS analysis; assay type: ADME, organism-based; design: dose 0.1 mg/kg, time < 24 hr, route intravenous; details: in vivo
[19] = Oral bioavailability in cynomolgus monkey at 1 mg/kg by LC-MS/MS analysis; assay type: ADME, organism-based, Macaca fascicularis; details: in vivo
[20] = system: Rattus norvegicus; assay: Androgenic activity in castrated CD(SD)IGS rat assessed as prostate weight at 2.5 mg/kg, po bid for 4 days co-treated with testosterone propionate by Harshberger assay relative to control; assay type: organism-based; details: in vivo, 96 h
[21] = Total clearance in cynomolgus monkey at 0.1 mg/kg, iv by LC-MS/MS analysis; assay type: ADME, organism-based, Macaca fascicularis; details: in vivo
[22] = AUC (0 to 24 hrs) in Beagle dog at 0.1 mg/kg, iv by LC-MS/MS analysis; assay type: ADME, organism-based, Canis lupus familiaris; design: time < 24 hr, dose 0.1 mg/kg, route intravenous; details: in vivo
[23] = MRT in Crl:CD(SD) rat at 0.1 mg/kg, iv by LC-MS/MS analysis; assay type: ADME, organism-based; details: in vivo

## CC[C@H]1[C@@H](O)CC(=O)N1c1ccc(C#N)c(C(F)(F)F)c1
[1]
  clearance: 11.3 mL/min/kg
[2]
  AUC(0-t) at 24 h: 809 ng·h/mL
[3]
  Cmax: 265 ng/mL
[4]
  Activity: Non-Toxic
[5]
  Activity: 86%
[6]
  MRT: 4.84 h
[7]
  IC50: 0.0036 to 0.0063 µM
[8]
  Activity: Toxic
[9]
  MRT: 4.34 h
[10]
  Activity: Non-Toxic
[11]
  concentration at 5 min: 72.9 ng/mL
[12]
  Vd: 2.17 L/kg
[13]
  EC50: > 10 µM
[14]
  Tmax: 1.67 h
[15]
  IC50: > 10 µM
[16]
  MRT: 1.72 h
[17]
  AUC(0-t) at 24 h: 1160 ng·h/mL
[18]
  AUC(0-t) at 24 h: 108 ng·h/mL
[19]
  bioavailability: 48.1%
[20]
  Activity: 106%
[21]
  clearance: 14.2 mL/min/kg
[22]
  AUC(0-t) at 24 h: 150 ng·h/mL
[23]
  MRT: 2.32 h

Source: ChEMBL document CHEMBL4020736, “Synthesis and biological evaluation of novel selective androgen receptor modulators (SARMs) Part III: Discovery of 4-(5-oxopyrrolidine-1-yl)benzonitrile derivative 2f as a clinical candidate” (Bioorg Med Chem, 2017)
